Experimental findings from ChEMBL document CHEMBL4610123, “Structure-Based Drug Discovery of N-((R)-3-(7-Methyl-1H-indazol-5-yl)-1-oxo-1-(((S)-1-oxo-3-(piperidin-4-yl)-1-(4-(pyridin-4-yl)piperazin-1-yl)propan-2-yl)amino)propan-2-yl)-2'-oxo-1',2'-dihydrospiro[piperidine-4,4'-pyrido[2,3-d][1,3]oxazine]-1-carboxamide (HTL22562): A Calcitonin Gene-Related …” (J Med Chem, 2020) are described below.

The target in data set [1] is T1, Mas-related G-protein coupled receptor member X2 (Homo sapiens) (UniProt Q96LB1).
T1 sequence (whole entry): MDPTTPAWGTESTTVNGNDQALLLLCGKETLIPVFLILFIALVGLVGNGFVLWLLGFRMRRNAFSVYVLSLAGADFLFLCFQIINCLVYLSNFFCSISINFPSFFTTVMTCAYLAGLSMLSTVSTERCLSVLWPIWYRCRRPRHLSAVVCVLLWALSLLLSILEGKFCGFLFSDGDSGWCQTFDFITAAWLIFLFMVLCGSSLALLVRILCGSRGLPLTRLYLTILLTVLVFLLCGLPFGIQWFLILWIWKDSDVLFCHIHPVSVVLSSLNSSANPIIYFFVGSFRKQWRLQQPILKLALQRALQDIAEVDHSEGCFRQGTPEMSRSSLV
The data set can be described thus: Agonist activity at MRGPX2 (unknown origin) at 10 uM relative to control.

Data set [2] can be described thus: Toxicity in rat assessed as behavioral changes at 0.1 to 1 mg/kg/day, sc administered for 10 days. Conditions: in vivo, 240 h. In kind it is organism-based.

Regarding `Cc1cc(C[C@@H](NC(=O)N2CCC3(CC2)OC(=O)Nc2ncccc23)C(=O)N[C@@H](CC2CCNCC2)C(=O)N2CCN(c3ccncc3)CC2)cc2cn[nH]c12` [HTL-0022562], the Activity in data set [1] is 80%; in data set [2], “Non-Toxic”.
